Experimental data reported in publication PMC4037565 (Organic & biomolecular chemistry, 2013).
Square brackets hold non-standard residues; d marks the D form. Peptide text beside a SMILES is read from it. Lys(N3) = [N-]=[N+]=NCCCC[C@H](N)C(=O)O; Orn = NCCC[C@H](N)C(=O)O; Pra = C#CC[C@H](N)C(=O)O

Tests used:
[1] = Solubility under NMR/CD buffer conditions; format: physicochemical; settings: 50 mM KD2PO4, pH 7, 20°C
[2] = read-out: Kd / binding constant for ATP; parent peptide; cited from earlier work

C#CC[C@H](NC(=O)[C@H](CCCNC(=N)N)NC(C)=O)C(=O)N[C@H](C(=O)N[C@@H](CCCCN)C(=O)N[C@H](C(=O)N[C@@H](CC(N)=O)C(=O)NCC(=O)N[C@@H](CCCN)C(=O)N[C@@H](Cc1c[nH]c2ccccc12)C(=O)N[C@H](C(=O)N[C@@H](CCCCN=[N+]=[N-])C(=O)N[C@@H](CCC(N)=O)C(N)=O)[C@@H](C)CC)C(C)C)C(C)C [NHB-rev-U] (Ac-R[Pra]VKVNG[Orn]WI[Lys(N3)]Q-NH2)
solubility (observation) [1]: not fully soluble and formed a gel-like substance

Ac-RWVKVNGOWIKQ-NH2 [WKWK]
Kd [2]: 170 µM
